As usually defined, the IC50 is the concentration needed to halve the response being measured.

Each structure is given as a SMILES string. Inconclusive results are not listed. Activity calls are given as the source filed them. The rule behind the calls is not given here.

The assay deals with Mycobacterium tuberculosis non-replicating, growth inhibition. As to the kind of experiment: growth inhibition of non-replicating M. tuberculosis (AID 488890).
Consider `O=C(N/N=C\c1ccc([N+](=O)[O-])s1)C1COc2ccccc2O1` (stereo not given), for which the 50% inhibitory concentration (IC50) is 4.94 µM.

In the case of `CC(C)Cn1c(N)c(C(=O)COC(=O)c2cnc(Cl)c(Cl)c2)c(=O)n(C)c1=O`, the IC50 was 12 µM (inactive).

Regarding `N#CC1=C(N)Oc2n[nH]c(-c3cccnc3)c2C1c1ccc([N+](=O)[O-])o1` (stereo not given), the IC50 is 5.62 µM.

As to `OC(COc1ccc2ccccc2c1Br)Cn1ccnc1` (stereo not given), the IC50 was 33 µM (inactive).

`O=C(OCC(=O)N1CCN(c2ccccc2)CC1)c1cnc(Cl)c(Cl)c1`: the IC50 is 4.72 µM.

For `Cc1ccc(C(=O)NNC(=S)NC(=O)c2ccc(Cl)cc2)cc1`, the IC50 is 4.01 µM.

As for `O=S1(=O)C=C(Sc2nnc(-c3ccccc3)o2)c2ccccc21`, the IC50 was below 0.1 µM.

As for `O=C(OCCCOC(=O)c1ccc([N+](=O)[O-])o1)c1ccc([N+](=O)[O-])o1`, the IC50 was 1.22 µM.

Take `COc1c[nH]n(C2CCCCC2)c(=O)c1=O`: the IC50 was 8.76 µM.

Turning to `COc1ccc(N2C(=O)CC(Sc3nc4ccccc4s3)C2=O)cc1OC` (stereo not given), the IC50 is 14.2 µM (inactive).

`CCOC(=O)CCCNC(=O)COC(=O)c1cc(Br)c(Br)s1`: the IC50 is 9.34 µM.

As for `CCC(=O)Nc1ccc(C(=O)NNC(=O)c2cc([N+](=O)[O-])cc([N+](=O)[O-])c2)cc1`, the IC50 is 12.9 µM (inactive).

Take `O=C(NNc1nc2ccccc2s1)Nc1ccc(F)cc1`: the IC50 is 14.4 µM (inactive).

For the compound `Cc1[nH]c2ccccc2c1C(=O)COC(=O)c1ccc([N+](=O)[O-])s1`, the IC50 was 0.65 µM.

Regarding `COc1ccc(C(=O)NNC(=S)NC(=O)c2cccc([N+](=O)[O-])c2)cc1`, the IC50 was 11.8 µM (inactive).

With `COc1ccc(-c2nnn(CC(=O)OC3CCCCC3)n2)cc1OC`, the 50% inhibitory concentration (IC50) was 7.74 µM.

With `Oc1ccccc1Nc1nc(NCC2CCCO2)c2ccccc2n1` (stereo not given), the IC50 is 30.7 µM (inactive).

In the case of `CCOC(=O)C1=C(C)C/C(=N\NC(=O)c2ccccc2O)CC1`, the IC50 was 4.22 µM.

For the compound `COc1cccc(NC(=O)c2ccc(Cn3cc([N+](=O)[O-])cn3)o2)c1`, the IC50 is 7.57 µM.

`CC(NCCCOc1cccc2ccccc12)c1ccccc1` (stereo not given): the IC50 is 15.5 µM (inactive).

Take `Nc1nonc1C(=O)N/N=C/c1ccc([N+](=O)[O-])o1`: the IC50 was 5.6 µM.

Take `CC(C)=CCN1CCN(Cc2cn(C(C)C)c3ccccc23)CC1CCO` (stereo not given): the IC50 was 22.1 µM (inactive).

Take `CCOc1ccc(C(=O)CCN2CCCCCC2)cc1`: the IC50 was 2.44 µM.

With `CNCc1ccccc1Sc1cc(O)ccc1O`, the IC50 was 5.19 µM.

With `O=C(Oc1cccc2cccnc12)c1ccc2c(c1)OCCO2`, the IC50 was 0.96 µM.

Turning to `Fc1ccc(-c2ccc(CNCc3ccccn3)o2)cc1Cl`, the IC50 is 8.76 µM.

Consider `COc1ccc(C(=O)COC(=O)CCC(=O)c2cccs2)cc1`, for which the IC50 is 34.2 µM (inactive).

`Cc1ccc(OCCCCn2ccnc2)c(Cl)c1`: the half-inhibitory concentration (IC50) was 8.23 µM.

As for `Cc1ccc2nc(CCc3nc4ccc(C)cc4[nH]3)[nH]c2c1`, the IC50 is 17.1 µM (inactive).

For the compound `O=c1c2c([N+](=O)[O-])cc([N+](=O)[O-])cc2nc2ccccn12`, the IC50 is 9.45 µM.

With `COCCn1c(C)cc(C(=O)COC(=O)c2ccc(Br)o2)c1C`, the IC50 was 43.8 µM (inactive).

For the compound `Cc1cc(OCCCn2ccnc2)ccc1C(C)C`, the IC50 is 9.17 µM.

On to `CCCCCC1CC(CC(=O)NC(=S)Nc2ccc([N+](=O)[O-])cc2)C(=O)O1` (stereo not given), for which the IC50 is 6.68 µM.

As for `Cc1ccc2oc(=O)c3cc(C(=O)NCCCN4CCCCCC4)sc3c2c1`, the IC50 is 15.8 µM (inactive).

With `CC(NC(=O)COc1ccc(-c2ccccc2)cc1)C1CCCO1` (stereo not given), the IC50 was 8.2 µM.

For the compound `CCC(CC)c1nnc(NC(=O)c2ccc3ccccc3n2)s1`, the IC50 is 4.02 µM.

With `CCOC(=O)COc1cc(N)c(Cl)cc1Cl`, the IC50 was 5.21 µM.

On to `COc1ccc(C(=O)Oc2c(CN3CCOCC3)cc(Cl)c3cccnc23)cc1OC`, for which the IC50 is 15.3 µM (inactive).

Take `Cc1ccccc1Nc1c(-c2ccccn2)nc2ccccn12`: the IC50 is 13.9 µM (inactive).

On to `COc1cccc(COC(=O)c2sc3nc4n(c(=O)c3c2C)CCC4)c1OC`, for which the IC50 was 2.48 µM.

Turning to `O=C(Oc1ccccc1Cl)c1ccc2c(=O)n3c(nc2c1)CCC3`, the half-maximal inhibitory concentration (IC50) is 2.28 µM.

For the compound `CCCCOC(=O)c1ccc(NC(=O)c2nn(C)cc2Br)cc1`, the IC50 was 20.4 µM (inactive).

Regarding `Cc1ccc(/C=N/NC(=O)c2ccncc2)s1`, the IC50 was 1.43 µM.

In the case of `Cc1ccc2nc(C)c3c(c2c1)COC3`, the IC50 was 29.8 µM (inactive).

Consider `CCN1CCN(c2ccc(S(=O)(=O)N3CCCCC3)cc2NC(=O)c2ccc([N+](=O)[O-])o2)CC1`, for which the IC50 is 12.6 µM (inactive).

Turning to `Clc1ccc(SCCCCn2ccnc2)cc1`, the IC50 is 4.89 µM.

For `O=C(CCC1CCCCC1)NCc1ccc(F)cc1`, the IC50 was 5.27 µM.

Take `CN1C(c2ccccc2)CC(=NO)CC1c1ccccc1` (stereo not given): the IC50 is 11.3 µM (inactive).

As for `Cc1cc(Nc2ccccc2)n(-c2nc3ccccc3[nH]2)n1`, the IC50 was 3.88 µM.

For the compound `CCOc1ccc(NC(=O)CCNC(=O)c2ccc(Br)cc2)cc1`, the IC50 is 13.8 µM (inactive).

For the compound `CCOC(=O)NC(=O)COC(=O)CCCSc1nc2ccccc2s1`, the IC50 is 10 µM (inactive).

Turning to `O=C(OCc1ccc([N+](=O)[O-])cc1)c1cc2ccccc2oc1=O`, the IC50 was 12.5 µM (inactive).

For `O=C(Nc1ccc(F)cc1F)c1cc2ccccc2oc1=O`, the IC50 was 25.1 µM (inactive).

With `COc1cccc(NC(=O)c2ccc(-c3ccc([N+](=O)[O-])cc3)o2)c1`, the IC50 is 1.2 µM.

In the case of `O=C(N/N=C/C=C/c1ccco1)c1ccncc1`, the IC50 is 1.19 µM.

Take `CCOC(=O)COc1ccc2c(c1)C(=O)CC(C)(c1cccnc1)O2` (stereo not given): the IC50 is 10.2 µM (inactive).

In the case of `CN(C)c1nc(-c2ccccn2)nnc1-c1ccccc1`, the IC50 is 9.74 µM.

Regarding `N=c1oc2ccccc2cc1C(=O)Nc1ccccc1`, the IC50 was 33 µM (inactive).

For the compound `Cc1ccc(NCCC(=O)c2cccs2)cc1`, the IC50 is 2.33 µM.

Turning to `CCOC(=O)COc1ccc2c(c1)c(C(C)=O)c(C)n2Cc1ccccc1`, the IC50 is 4.62 µM.

As to `Oc1ccc2cc(Br)ccc2c1CN1CCCC1`, the concentration for half-maximal inhibition (IC50) is 7.29 µM.

For `O=C(CCNc1ccc(Cl)c(C(F)(F)F)c1)c1ccco1`, the IC50 is 5.63 µM.

Turning to `O=C(c1ccccc1)C1CN(Cc2ccccc2)CCC1(O)c1ccccc1` (stereo not given), the IC50 was 3.82 µM.

Consider `COc1ccccc1-c1nnc(Sc2nc([N+](=O)[O-])nn2C)o1`, for which the IC50 is 8.19 µM.

As for `O=C(N/N=C/c1cccc(F)c1)c1c(O)c2ccccc2[nH]c1=O`, the IC50 is 3.17 µM.

Consider `Cc1cc(C)cc(OCC(=O)N/N=C/c2ccc([N+](=O)[O-])o2)c1`, for which the IC50 was 1.36 µM.

On to `O=C(NC(=S)N1CCN(C/C=C/c2ccccc2)CC1)c1ccco1`, for which the IC50 is 36.1 µM (inactive).

Consider `COc1ccc(C(C)=O)cc1COC(=O)c1ccc2ccccc2n1`, for which the IC50 was 4.38 µM.

For the compound `Cc1cccc(NC(=O)COC(=O)c2cc3ccccc3oc2=O)c1`, the IC50 is 14.2 µM (inactive).

`O=C1NC(=O)N(CCc2ccc(F)cc2)C(=O)/C1=C/C=C/c1ccccc1`: the IC50 is 5.37 µM.

Turning to `CCOC(=O)c1cn(Cc2cccc(Cl)c2)nn1`, the IC50 was 8.03 µM.

Turning to `CCS(=O)(=O)c1ncc(Cl)c(C(=O)Nc2ccc(S(=O)(=O)N(C)c3ccccc3)cc2)n1`, the IC50 is 7.18 µM.

Turning to `CN(C)CCCn1c(=O)n(C2CCCCC2)c(=O)c2c3c(sc21)CCCCC3`, the IC50 was 20.7 µM (inactive).

With `CCn1nnc(NC(=O)COc2ccc(C3CCCCC3)cc2)n1`, the IC50 was 1.5 µM.

As to `CCCCCn1c(=O)c(C(=O)Nc2nc(CC(=O)OCC)cs2)c(O)c2ccccc21`, the IC50 is 2.39 µM.

As for `Cc1cc(N/N=C/c2ccc(F)cc2)nc(-n2nc(C)cc2C)n1`, the IC50 was 4.92 µM.

As to `CN(CC(=O)Nc1ccc(C#N)cc1)Cc1ccc(Cl)c(Cl)c1`, the IC50 is 12.9 µM (inactive).

Regarding `CCc1cc2c3c(c1)C(C)CC(C)(C)N3C(=O)/C2=C1\SC(=O)NC1=O` (stereo not given), the IC50 is 21.5 µM (inactive).

On to `O=C(C/C=N\OCc1ccc([N+](=O)[O-])cc1)Nc1ccc(Cl)cc1`, for which the IC50 is 5.29 µM.

As for `Cc1cc(C(=O)NNc2ccc(Cl)cc2)no1`, the 50% inhibitory concentration (IC50) is 1.61 µM.

Consider `Cc1[nH]n(-c2ccccc2)c(=O)c1C=Nc1cnc2ccccc2c1`, for which the IC50 is 6.23 µM.

In the case of `O=C(N/N=C/c1cc(Br)cc(Cl)c1O)c1ccc2c(c1)OCO2`, the concentration for half-maximal inhibition (IC50) is below 0.1 µM.

Regarding `Cc1ccc(/C=N/NC(=O)c2ccncc2)o1`, the IC50 was 2.07 µM.

`Cc1cc2nc(/N=C(\N)NC(=O)C(C)C)nc(C)c2cc1C`: the IC50 was 3.1 µM.

Regarding `O=C(COc1ccc(Cl)cc1)NNC(=O)c1ccccn1`, the IC50 is 12.1 µM (inactive).

Regarding `Cc1nc(/N=C(\N)NC(=O)NC2CCCCC2)nc2ccccc12`, the IC50 was 10.3 µM (inactive).

As to `COc1ccc(-c2nc(C=O)cs2)cc1`, the IC50 was 5.84 µM.

Consider `O=C(Nc1nccs1)c1ccc2ccccc2c1`, for which the IC50 was 13.8 µM (inactive).

As for `CCc1ccc(OCCNc2cc(N3CCNC(C)C3)ccc2[N+](=O)[O-])cc1` (stereo not given), the IC50 is 2.89 µM.

`O=C(Cc1c(F)cccc1Cl)Nc1ncc([N+](=O)[O-])s1`: the IC50 was 12.1 µM (inactive).

Consider `CC(C)(C)C(=O)COc1ccccc1[N+](=O)[O-]`, for which the IC50 was 17.6 µM (inactive).

Turning to `O=C(CCSc1ccc(Cl)cc1)Nc1cccnc1`, the IC50 is > 50 µM (inactive).

Consider `CCc1cc(C(c2ccncc2)N2CCN(C)CC2)c(NC(=O)c2ccccc2)s1` (stereo not given), for which the IC50 is 10.6 µM (inactive).

As for `Cc1ccc2c(c1)c1c3n2CCN=C3CCC1`, the IC50 was 15.2 µM (inactive).

For `O=C(Cn1cc([N+](=O)[O-])nc1[N+](=O)[O-])N1CCN(c2ccccc2)CC1`, the IC50 is 12.8 µM (inactive).

With `COc1cccc2[nH]c3c(Cl)ncnc3c12`, the IC50 is 17.4 µM (inactive).

Regarding `O=C(Nc1ccccc1F)c1ccc(Br)o1`, the IC50 was 13.4 µM (inactive).

Take `Cc1ccc(NCCC(=O)c2cccs2)cc1C`: the IC50 is 6.07 µM.

As to `CCOc1ccc(NCC(=O)c2ccc(C)cc2)cc1`, the IC50 was 4.95 µM.

With `CCOC(=O)Cc1nc2cc(Cl)ccc2o1`, the IC50 is 32.3 µM (inactive).

Source of the values: PubChem BioAssay AID488890 (Southern Research Specialized Biocontainment Screening …, 2010).
